“Also recorded” adds a separate entry of the source.
Columns and labels:
[1] = system: human colon carcinoma HT-29 cells; assay type: cell-based
[2] = system: human melanoma cells; assay type: cell-based

C=C(C=O)C[C@@H]1C[C@H](O)[C@]2(C)O[C@@H]3C[C@@H]4O[C@@H]5C[C@]6(C)O[C@]7(C)CC[C@@H]8O[C@@H]9C[C@]%10(C)O[C@@H]%11C(C)=CC(=O)O[C@H]%11C[C@H]%10O[C@H]9C[C@@H](C)[C@H]8O[C@H]7C[C@H]6O[C@H]5C/C=C\[C@H]4O[C@H]3C[C@H]2O1 [brevetoxin]
response in the presence of ouabain and veratridine [1]: lack of response | response in the presence of ouabain and veratridine [2]: does not respond; also recorded: lack of response

Source: patent publication US5858687A (priority 1995, dated 1999)
